This note sets out measurements from patent US12070502B2, “Process for reducing subvisible particles in a pharmaceutical formulation” (Regeneron Pharmaceuticals, Inc., priority 2014, dated 2024).

Where only a bound is given, the exact number is not on record here.

For series [1], the system named is polysorbate degrading activity. As to the kind of experiment: Reduction of polysorbate 20 degradation by lipase inhibitors. Type of series: biochemical, CHO cell. The conditions noted are these: relative to control without inhibitor. The text has this:
Polysorbate degradation activity was followed during HIC purification of an exemplar antibody produced in CHO cell culture. Partially purified CHO cell extract was applied to HIC (phenyl-sepharose). The flow-through, which contained almost all of the antibody, was collected and analyzed for polysorbate degradation activity. […] The HIC bound fraction was stripped from the HIC media and subsequently subjected to 100 kDa cut-off ultrafiltration/diafiltration. The unfiltered stripped fraction contained 9.9% polysorbate degradation activity, the filter permeate contained 1.3% polysorbate degradation activity and 5% antibody yield, and the filter retentate contained 7.4% polysorbate degradation activity and 95% antibody yield.
Whether the polysorbate degrading activity is a lipase was tested by combining a lipase inhibitor with the polysorbate degrading activity fraction spiked with polysorbate 20. Table 12 presents the data showing a reduction of polysorbate degrading activity due to lipase inhibitor relative to the control (antibody with associated polysorbate degrading activity plus polysorbate 20 without lipase inhibitor).

Series [2] can be described thus: Stability of polysorbate 20 / polysorbate 80 esters in 150 mg/mL antibody (mAb1) formulation by mass spectroscopy. The following applies: for Percent Ester Degradation: 150 mg/mL antibody (mAb1) formulation; for percent remaining esters, Diester / percent remaining esters, Monoester: 150 mg/mL mAb1, 0.02% detergent, no HIC (process 3). The procedure:
The stability of polysorbate 20 and polysorbate 80 in the 150 mg/mL antibody (mAb1) formulation containing 0.02% non-ionic detergent (polysorbate) prepared without HIC [process 3, see below and Table 8]) were compared, under the hypothesis that degradation of the fatty acid ester promotes protein instability and consequent SVP formation. The relative amounts of remaining esters (mono- and di-esters) were determined by mass spectroscopy.
The rates of degradation of polysorbate 20 and polysorbate 80 formulated with 150 mg/mL antibody (mAb1) (as described above for Table 5) were determined under identical conditions using mass spectroscopy to measure relative amounts of free fatty acids and fatty acid esters. Percent ester degradation was determined using the following formula:
[formula] wherein T0=time zero, T1=time at experimental condition (i.e., 2 months at 45° C.; 6 months at 5° C.), and POE=polyoxyethylene. […]
The time point samples were analyzed using an anion exchange column (Oasis MAX column, 30 μm, 2.1 mm×20 mm; Waters Corporation, Milford, Mass.) followed at t=5 minutes with reverse phase chromatography (ACQUITY UPLC® BEH 130 C4 column, 1.7 μm, 2.1 mm×50 mm; Waters Corporation, Milford, Mass.). The reverse phase output was connected to a mass spectrometer (Thermo Q-Exactive mass spectrometer; Thermo Fisher Scientific, Inc., Wilmington, Del.). The chromatographic conditions are described in Table 11.
The system was equilibrated with 99% mobile phase A (0.1% formic acid in water) at a flow rate of 0.1 mL/minute for 40 minutes prior to first injection. Water was used as a blank injection. The mass spectrometer parameters were as follows: mass range 150-2000 m/z; heater temperature at 250° C.; voltage 3.8 kv; sheath gas 40; auxiliary gas 10; capillary temperature 350° C.; and S-lens 50.

For `CCCCOc1ccccc1B(O)O` [2-Butoxyphenyl boronic acid, 2-butoxyphenylboronic acid], the “Percent Reduction in Polysorbate 20 Degradation” value (shortened to “Percent Reduction”) is 0% in series [1] (0.001 mM lipase inhibitor), 28% in series [1] (0.01 mM lipase inhibitor) and 0% in series [1] (0.1 mM lipase inhibitor).

Turning to `CCCCCCCCCCC[C@@H](C[C@@H]1OC(=O)[C@H]1CCCCCC)OC(=O)[C@H](CC(C)C)NC=O` [Orlistat, orlistat], the figures for the “Percent Reduction” value in series [1] (0.001 mM lipase inhibitor), in series [1] (0.01 mM lipase inhibitor) and in series [1] (0.1 mM lipase inhibitor) were 0%, 27.8% and 67%, respectively.

In the case of `O=C(Nc1cccc(-c2ccccc2)c1)OC1CCCCC1` [URB602, [1-1′-biphenyl]-3-tl-carbamicacid cyclohexyl ester], the entries for the “Percent Reduction” value in series [1] (0.001 mM lipase inhibitor), in series [1] (0.01 mM lipase inhibitor) and in series [1] (0.1 mM lipase inhibitor) were 0%, 20% and 0%, respectively.

diethylumbelliferyl phosphate: the “Percent Reduction” value in series [1] (0.001 mM lipase inhibitor) is recorded as 48%; in series [1] (0.01 mM lipase inhibitor), 100%; in series [1] (0.1 mM lipase inhibitor), over 95%.

Take polysorbate 20 [PS20]: in series [2] (2 months at 45° C.), the “Percent Ester Degradation” value amounted to 63%; the “percent remaining esters, Diester” value was 10%; the “percent remaining esters, Monoester” value was found to be 30%. In series [2] (6 months at 5° C.), the “Percent Ester Degradation” value came to 22%; the “percent remaining esters, Diester” value is reported as 30%; the “percent remaining esters, Monoester” value is 60%. Moreover, in series [2] (Time zero), the “Percent Ester Degradation” value is 0%; the “percent remaining esters, Diester” value was 100%; the “percent remaining esters, Monoester” value worked out at 100%.
